Experimental data reported in paper PMC12177571, “Glycosidase-activated prodrugs of a cytotoxic iron chelator for targeted cancer therapy” (RSC Medicinal Chemistry, 2025).

Columns and labels:
β-glucosidase [1] = test: Enzymatic cleavage study (HPLC) with β-glucosidase; type: biochemical, almonds; settings: for Release of 1 (HPLC): 100 μM prodrug in PBS, 2 units β-glucosidase, 37°C
Method: (§1) To test the desired, selective enzymatic cleavage and further evaluate compound stability, solutions of each prodrug were prepared in phosphate-buffered saline (PBS), and either β-galactosidase or β-glucosidase were added. After incubation times of 24 h and 48 h, samples from each mixture were analyzed by HPLC to gain insight into the relative amounts of both the remaining prodrug and the liberated 1.
(§2) Fig. 3 HPLC traces after 48 h of enzyme incubation for the prodrugs of this study as indicated at their respective peaks. The identity of the employed enzyme is indicated on the left of the chromatogram and the identity of each observed compound is shown above the respective peak. Chromatograms are shown with an offset of 2 along the ordinate to facilitate comparison.
(§3) The three following enzymes were employed in this study:
(§4) (1) esterase from porcine liver sourced from Sigma Aldrich as dry powder with an activity of 229.4 units/mg protein as indicated by the supplier for the received lot; (2) β-glucosidase from almonds sourced from Sigma Aldrich as dry powder with an activity of 11.7 U/mg as indicated by the supplier for the received lot
(§5) (3) β-galactosidase from e.coli overproducer sourced from Roche as prepared aqueous solution with an activity of 1500 units/mL protein as indicated by the supplier for the […]
(§6) As indicated for each experiment below, the respective enzyme was dissolved in PBS buffer and diluted as appropriate to produce the desired concentration.
25 mM stock solutions in DMSO were prepared for 2a, 2b, 3a, and 3b. […]
[…] The vials were then assigned to one of three experimental groups: control, negative, and positive.
In the control group, no enzyme was introduced. […]
All vials were incubated in a 37°C water bath for 48 hours. Aliquots were extracted from each vial after 24 and 48 hours, respectively, and analyzed as described below.
(§7) The extracted aliquots were analyzed via high-performance liquid chromatography (HPLC) with ultraviolet (UV) detection at a wavelength of 254 nm. Chromatograms were plotted with an offset of 1 along the y-axis to allow clear intercomparison of the data across the […]

β-glucosidase [2] = test: AIE fluorescence study of release of 1 with β-glucosidase; type: biochemical, almonds; settings: for Relative emission intensity at 480 nm (for 3b at 420 nm): 20 μM in water; for Fluorescence emission / release of 1 (in words): water, three enzyme units of β-glucosidase, 0 h and 24 h
Method: (§8) The AIE fluorescence properties of 1 were used as a means of supporting the above conclusion. The emission of all glycosylated prodrugs is suppressed. Thus, solutions of each prodrug were prepared in water, and three enzyme units of β-galactosidase or β-glucosidase, as appropriate, were added to the prodrugs. Each mixture was then analysed by fluorescence spectroscopy after 24 h of incubation. […] This finding is consistent with a lack of enzymatic activation.
Fig. 4 Relative emission intensity at 480 nm (*for 3b at 420 nm) of evaluated compounds at 20 μM before and after incubation with 3 U of the appropriate enzyme. TEXT PRINTED IN THE PICTURE: 1: Relative Emission 480 nm: 100% (Before incubation); Relative Emission 480 nm: 100% (After 24 h incubation) | 2a: Relative Emission 480 nm: 0% (Before incubation); Relative Emission 480 nm: 0% (After 24 h incubation) | 2b: Relative Emission 480 nm: 0% (Before incubation); Relative Emission 480 nm: 1% (After 24 h incubation) | 3a: Relative Emission 480 nm: 1% (Before incubation); Relative Emission 480 nm: 33% (After 24 h incubation) | 3b*: Relative Emission 480 nm: 1% (Before incubation); Relative Emission 480 nm: 11% (After 24 h incubation)
Figure S25: Fluorescence spectra for excitation (blue) and emission (green) of 1 at a concentration of 20 μM in water. […]
Figure S27: Fluorescence spectra for excitation (blue) and emission (green) of 2b at a concentration of 20 μM in water
before (left) and after (right) incubation with 3 units of b-glucosidase for 24 h. […]
Figure S29: Fluorescence spectra for excitation (blue) and emission (green) of 3b at a concentration of 20 μM in water
before (left) and after (right) incubation with 3 units of β-glucosidase for 24 h. […]

β-galactosidase [3] = target: T1, β-galactosidase (Escherichia coli, UniProt P00722); test: Enzymatic cleavage study (HPLC) with β-galactosidase; type: biochemical, e.coli; settings: 100 μM prodrug in PBS, 2 units β-galactosidase, 37°C
T1 construct: purchased Roche; host or cells: E. coli overproducer
T1 sequence (P00722 2-1024): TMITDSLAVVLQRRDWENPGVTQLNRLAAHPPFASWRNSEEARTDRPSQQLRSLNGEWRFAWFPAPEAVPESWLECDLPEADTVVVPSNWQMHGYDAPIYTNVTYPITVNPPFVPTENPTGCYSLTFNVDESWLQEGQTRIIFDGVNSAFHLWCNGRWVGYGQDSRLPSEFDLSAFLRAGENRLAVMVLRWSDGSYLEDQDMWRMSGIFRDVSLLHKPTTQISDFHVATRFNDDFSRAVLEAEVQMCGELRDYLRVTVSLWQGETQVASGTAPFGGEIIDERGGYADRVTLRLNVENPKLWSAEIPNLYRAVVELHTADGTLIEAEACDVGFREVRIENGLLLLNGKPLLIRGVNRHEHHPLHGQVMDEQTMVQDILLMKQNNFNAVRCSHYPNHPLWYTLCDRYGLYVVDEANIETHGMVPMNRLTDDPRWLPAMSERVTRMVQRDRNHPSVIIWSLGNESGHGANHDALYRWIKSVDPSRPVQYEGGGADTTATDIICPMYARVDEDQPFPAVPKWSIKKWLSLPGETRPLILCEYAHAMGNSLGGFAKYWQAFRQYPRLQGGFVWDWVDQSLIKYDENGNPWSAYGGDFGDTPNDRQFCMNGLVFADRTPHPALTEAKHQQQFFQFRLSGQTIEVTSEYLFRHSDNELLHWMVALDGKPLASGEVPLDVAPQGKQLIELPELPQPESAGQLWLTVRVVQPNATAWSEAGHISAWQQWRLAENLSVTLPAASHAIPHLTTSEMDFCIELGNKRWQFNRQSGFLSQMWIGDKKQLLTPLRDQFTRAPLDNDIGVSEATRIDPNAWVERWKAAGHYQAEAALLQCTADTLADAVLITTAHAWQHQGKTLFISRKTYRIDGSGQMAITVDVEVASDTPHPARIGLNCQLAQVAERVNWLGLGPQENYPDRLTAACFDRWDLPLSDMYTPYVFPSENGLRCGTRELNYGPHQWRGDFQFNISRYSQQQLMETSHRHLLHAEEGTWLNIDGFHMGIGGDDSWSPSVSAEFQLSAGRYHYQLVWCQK
Method: as §1, §2, §3, §4, §5, §6
25 mM stock solutions in DMSO were prepared for 2a, 2b, 3a, and 3b. From these stock solutions, 4 µL was added to 1 mL of PBS buffer, respectively, in separate glass vials, achieving a final concentration of 100 µM. The vials were then assigned to one of three experimental groups: control, negative, and positive.
In the control group, no enzyme was introduced. The negative group received 2 units of esterase enzyme, while the positive group received 2 units of the target enzyme as indicated, either β-galactosidase or β-glucosidase. All vials were incubated in a 37°C water bath for 48 hours. Aliquots were extracted from each vial after 24 and 48 hours, respectively, and analyzed as described below.
as §7

β-galactosidase [4] = target: T1, β-galactosidase; test: AIE fluorescence study of release of 1 with β-galactosidase; type: biochemical, e.coli; settings: for Relative emission intensity at 480 nm: 20 μM in water; for Fluorescence emission / release of 1 (in words): water, three enzyme units of β-galactosidase, 0 h and 24 h
Method: as §8
Fig. 4 Relative emission intensity at 480 nm (*for 3b at 420 nm) of evaluated compounds at 20 μM before and after incubation with 3 U of the appropriate enzyme. TEXT PRINTED IN THE PICTURE: 1: Relative Emission 480 nm: 100% (Before incubation); Relative Emission 480 nm: 100% (After 24 h incubation) | 2a: Relative Emission 480 nm: 0% (Before incubation); Relative Emission 480 nm: 0% (After 24 h incubation) | 2b: Relative Emission 480 nm: 0% (Before incubation); Relative Emission 480 nm: 1% (After 24 h incubation) | 3a: Relative Emission 480 nm: 1% (Before incubation); Relative Emission 480 nm: 33% (After 24 h incubation) | 3b*: Relative Emission 480 nm: 1% (Before incubation); Relative Emission 480 nm: 11% (After 24 h incubation) […]
Figure S25: Fluorescence spectra for excitation (blue) and emission (green) of 1 at a concentration of 20 μM in water.
Figure S26: Fluorescence spectra for excitation (blue) and emission (green) of 2a at a concentration of 20 μM in water before (left) and after (right) incubation with 3 units of b-galactosidase for 24 h. […]
Figure S28: Fluorescence spectra for excitation (blue) and emission (green) of 3a at a concentration of 20 μM in water before (left) and after (right) incubation with 3 units of β-galactosidase for 24 h. […]

[5] = after 24 h incubation with 3 U β-glucosidase
[6] = before incubation with 3 U β-glucosidase
[7] = after 24 h incubation with 3 U β-galactosidase
[8] = before incubation with 3 U β-galactosidase

Row | Compound | Release of 1 (HPLC) (β-glucosidase [1]; 24 h) | Release of 1 (HPLC) (β-glucosidase [1]; 48 h) | Relative emission intensity at 480 nm (for 3b at 420 nm) (β-glucosidase [2]; [5]) | Relative emission intensity at 480 nm (for 3b at 420 nm) (β-glucosidase [2]; [6]) | Fluorescence emission / release of 1 (in words) (β-glucosidase [2]) | Release of 1 (HPLC) (β-galactosidase [3]; 24 h) | Release of 1 (HPLC) (β-galactosidase [3]; 48 h) | Relative emission intensity at 480 nm (β-galactosidase [4]; [7]) | Relative emission intensity at 480 nm (β-galactosidase [4]; [8]) | Fluorescence emission / release of 1 (in words) (β-galactosidase [4]) | Cleavage of 1 from prodrug (HPLC of the fluorescence sample) (β-glucosidase [1]; 20 μM in water, 3 enzyme units of β-glucosidase, 24 h)
1 | OC[C@H]1OC(Oc2ccccc2-c2nc(-c3ccccc3O)nn2-c2ccccc2)[C@H](O)[C@@H](O)[C@@H]1O (stereo partly drawn) [2b] | no release of 1 was observed | no release of 1 was observed | 1% | 0% | no fluorescence emission was observed | – | – | – | – | – | –
2 | OC[C@H]1OC(Oc2ccccc2-c2nc(-c3ccccc3O)nn2-c2ccccc2)[C@H](O)[C@@H](O)[C@H]1O (stereo partly drawn) [2a] | – | – | – | – | – | no release of 1 was observed | no release of 1 was observed | 0% | 0% | no fluorescence emission was observed | –
3 | OC[C@H]1OC(Oc2ccc(COc3ccccc3-c3nc(-c4ccccc4O)nn3-c3ccccc3)cc2)[C@H](O)[C@@H](O)[C@@H]1O (stereo partly drawn) [3b] | significant release of 1 | further increased | 11% | 1% | less pronounced emission | – | – | – | – | – | successful cleavage
4 | OC[C@H]1OC(Oc2ccc(COc3ccccc3-c3nc(-c4ccccc4O)nn3-c3ccccc3)cc2)[C@H](O)[C@@H](O)[C@H]1O (stereo partly drawn) [3a] | – | – | – | – | – | significant release of 1 | further increased | 33% | 1% | readily discernible release of 1 | –
